In US20190227066A1, “COMPOSITIONS AND METHODS FOR DETECTING CANCER CELLS IN A TISSUE SAMPLE” (ISI Life Sciences, Inc., priority 2016, published 2019):

Tested on: SDOV3 cells (an ovarian cancer cell line)
Test: Detection of ovarian cancer cells: uptake and intracellular deacylation, imaged by fluorescence microscopy
Assay type: cell-based
Details: 50 micromolar, folate-free medium (no FBS), washed with HBSS, 20× immersion objective
Procedure: Compound 24 and comparative compound A were evaluated for their ability to be absorbed by cancer cells and then, in the case of compound 24, deacylated by intracellular esterases so as to regenerate a fluorescent structure. Specifically, approximately 500,000 SDOV3 cells (an ovarian cancer cell line) were seeded into separate 35 mm culture dishes containing a folate-free growth medium (RPMI+10% FBS). The next day, the medium was replaced with a folate-free medium (no FBS). In one culture dish, the medium was supplemented with 25 micromolar of compound 24; and, in another culture dish, the medium was supplemented with 50 micromolar of comparative compound A. After incubation, the cells were washed with HBSS (Hank's balanced salt solution) to remove unbound compound. The cells were then imaged with a 20× immersion objective on a standard upright fluorescent microscope. […] FIG. 1 illustrates a picture showing the fluorescence generated. Note that only the cancer cells evidenced fluorescence and that the solution remained non-fluorescent. […] This evidences that that composition was not suitable for use in the methods described herein.

`Nc1nc2ncc(CNc3ccc(C(=O)NC(CCC(=O)NCCCCCNC(=O)c4cccc(-c5c6ccc(=O)cc-6oc6cc(O)ccc56)c4C(=O)O)C(=O)O)cc3)nc2c(=O)[nH]1` (stereo not shown) [comparative compound A] was tested, and the “fluorescent signal of the cells” value was “burst of fluorescence but immediately the fluorescence was bleached”.
